In patent EP4813986A1, “COMPOUND FOR REDUCING SERUM CONCENTRATION OF RBP4, AND USE” (Heronova Pharmaceuticals, LLC, priority 2023, dated 2025):
Where two headings read alike, the source gives them in different places.

Assays:
in vitro = settings: microsomes, pH 7.4
Method: Phosphate buffer preparation: Weigh 7.098 g of disodium hydrogen phosphate, add 500 mL of pure water and dissolve by ultrasonication to obtain a disodium hydrogen phosphate solution. Weigh 3.400 g of potassium dihydrogen phosphate, add 250 mL of pure water and dissolve by ultrasonication to obtain a potassium dihydrogen phosphate solution. The disodium hydrogen phosphate solution and potassium dihydrogen phosphate solution were mixed and adjusted to pH 7.4+0.2.
10 mM NADPH preparation: Weigh an appropriate amount of NADPH (reduced coenzyme II), freshly prepare a 10 mM working solution with phosphate buffer, and the final concentration is 1 mM.
Incubation system preparation: Prepare the suspension into the incubation plate according to Table 5, and pre-incubate in a 37°C water bath for 10 min. Table 5 Incubation System Preparation
2 µL of positive control or test compound working solution was added to 358 µL of the incubation system, mixed uniformly by vortexing, and all samples were prepared in duplicate. 40 µL of 10 mM NADPH was added to the system, mixed uniformly by low-speed vortexing, and the reaction timing was started. […] Centrifuge at 4700 rpm, 4°C for 15 minutes to precipitate proteins. Transfer 100 µL of the supernatant to the sample plate, add 100 µL of pure water and mix well for UPLC-MS/MS analysis. Table 6 Liver Microsome Stability Results

RBP4 = biological target: T1, RBP4 (Mus musculus, UniProt Q00724); test: Plasma RBP4 content detection test (ELISA) after single oral dose; format: in vivo, ICR male mice; settings: 5 mg/kg oral, maximum reduction within 5 to 24 hours vs 0-hour value
T1 construct: from tissue; host or cells: plasma of ICR male mice
Method: Test Method: ICR male mice aged 7 to 8 weeks were adaptively fed for 3 to 7 days and randomly divided into groups (4 mice per group), and fasted for 12 hours before the test. Orbital venous blood samples were collected and plasma was separated before administration on the test day (0-hour value as the initial content). Then, test compounds at a dose of 1 mg/kg or 5 mg/kg were orally administered (vehicle: 5% DMSO + 10% cyclodextrin), and vehicle (5% DMSO + 10% cyclodextrin) was orally administered as a control group. Orbital venous blood samples were collected and plasma was separated at 5, 8, 10, 12, and 24 hours after compound administration. The RBP4 content in plasma samples was detected using Mouse RBP4 (Retinol Binding Protein 4, Plasma) ELISA Kit (immunoway, KE1574), the reduction rate was calculated, and the maximum reduction rate within 5 to 24 hours was selected. Reduction rate of RBP4 content in mouse plasma at different sampling time points = (Initial RBP4 content - RBP4 content at sampling point) / Initial RBP4 content. Table 2 Plasma RBP4 Reduction Levels of Different Compounds

[1] = Pharmacokinetic test, single oral dose, plasma LC-MS/MS; format: in vivo; settings: mouse, male ICR mice; for half-life: read-out: half-life T1/2 (converted); for Cmax: read-out: peak concentration Cmax; for Tmax: read-out: peak time Tmax
Method: Test Method: Three ICR mice (male) were used for each compound, with five groups in total. Mice were treated with a single oral dose of 10 mg/kg or 5 mg/kg. For each mouse, blood samples were collected at 0.25, 0.5, 1, 2, 4, and 8 hours after administration. Whole blood samples were placed in test tubes containing EDTA-K2, inverted up and down several times, and then centrifuged at 6000 rpm, 4°C for 15 minutes to obtain plasma. The concentration of the compound in plasma samples was determined using the LC-MS/MS method. Table 4 Pharmacokinetic Results of Different Compounds

[2] = in vivo, single oral dose 10 mg/kg

Compound | half-life at 1 µM (in vitro; human) [min] | microsomal CLint at 1 µM (in vitro; human) [µL/min/mg] | half-life at 1 µM (in vitro; mouse) [min] | microsomal CLint at 1 µM (in vitro; mouse) [µL/min/mg] | Maximum Plasma RBP4 Reduction Rate (5 mg/kg dose) (RBP4) [%] | AUC(0-t) [1, 2] [ng·h/mL] | half-life [1, 2] [min] | Cmax [1, 2] [ng/mL] | Tmax [1, 2] [min] | AUC(0-t) ([1]; single oral dose 10 mg/kg) [ng·h/mL] | half-life ([1]; single oral dose 10 mg/kg) [min] | Cmax ([1]; single oral dose 10 mg/kg) [ng/mL] | Tmax ([1]; single oral dose 10 mg/kg) [min] | AUC(0-t) ([1]; single oral dose 5 mg/kg) [ng·h/mL] | half-life ([1]; single oral dose 5 mg/kg) [min] | Cmax ([1]; single oral dose 5 mg/kg) [ng/mL] | Tmax ([1]; single oral dose 5 mg/kg) [min]
CC(=O)N1CCc2c(C(=O)N3CC=C(c4ccc(F)c(F)c4C(F)(F)F)CC3)n[nH]c2C1 [Compound 1] | > 180 | < 7.44 | 45.9 | 30.2 | 41 | 2460 | 167 | 1240 | 30 |  |  |  |  |  |  |  | 
CC(=O)N1CCc2c(C(=O)N3CC=C(c4cccc(F)c4C(F)(F)F)CC3)n[nH]c2C1 [Compound 2] | 94.4 | 14.7 | 18.8 | 73.6 |  |  |  |  |  |  |  |  |  |  |  |  | 
COCCN1CCc2c(C(=O)N3CC=C(c4cccc(F)c4C(F)(F)F)CC3)n[nH]c2C1 [Compound 3] | 18.7 | 74 | 26.3 | 52.7 |  |  |  |  |  | 119 | 442 | 159 | 30 |  |  |  | 
COCC(=O)N1CCc2c(C(=O)N3CC=C(c4cccc(F)c4C(F)(F)F)CC3)n[nH]c2C1 [Compound 6] | 63 | 22 | 9.46 | 146 |  |  |  |  |  | 383 | 230 | 285 | 30 |  |  |  | 
COCC(=O)N1CCc2c(C(=O)N3CC=C(c4ccc(F)c(F)c4C(F)(F)F)CC3)n[nH]c2C1 [Compound 7] | 103 | 13.4 | 15.6 | 89 | 64 |  |  |  |  | 1530 | 89.4 | 1050 | 30 |  |  |  | 
[2H]C([2H])([2H])OCC(=O)N1CCc2c(C(=O)N3CC=C(c4cccc(F)c4C(F)(F)F)CC3)n[nH]c2C1 [Compound 8] | 70.4 | 19.7 | 6.79 | 204 |  |  |  |  |  | 556 | 199 | 515 | 30 |  |  |  | 
[2H]C([2H])([2H])OCC(=O)N1CCc2c(C(=O)N3CC=C(c4ccc(F)c(F)c4C(F)(F)F)CC3)n[nH]c2C1 [Compound 9] | 130 | 10.6 | 17.2 | 80.8 | 82 |  |  |  |  | 1030 | 40 | 1090 | 30 |  |  |  | 
NC(=O)CN1CCc2c(C(=O)N3CC=C(c4ccc(F)c(F)c4C(F)(F)F)CC3)n[nH]c2C1 [Compound 10] | > 180 | < 7.44 | 18.6 | 74.5 | 72 |  |  |  |  | 1200 | 113 | 468 | 30 |  |  |  | 
CNC(=O)CN1CCc2c(C(=O)N3CC=C(c4ccc(F)c(F)c4C(F)(F)F)CC3)n[nH]c2C1 [Compound 11] | 140 | 9.9 | 11.4 | 121 |  |  |  |  |  |  |  |  |  |  |  |  | 
CN(C)C(=O)CN1CCc2c(C(=O)N3CC=C(c4ccc(F)c(F)c4C(F)(F)F)CC3)n[nH]c2C1 [Compound 12] | 126 | 11 | 4.2 | 330 |  |  |  |  |  |  |  |  |  |  |  |  | 
O=C(c1n[nH]c2c1CCNC2)N1CC=C(c2cccc(F)c2C(F)(F)F)CC1 [Compound 13] | > 180 | < 7.44 | 30.2 | 45.8 | 67 |  |  |  |  | 6040 |  | 1200 | 120 |  |  |  | 
O=C(c1n[nH]c2c1CCNC2)N1CC=C(c2ccc(F)c(F)c2C(F)(F)F)CC1 [Compound 14] | > 180 | < 7.44 | 30 | 46.2 | 53 |  |  |  |  |  |  |  |  | 6000 | 452 | 364 | 318
NC(=O)CN1CCc2c(C(=O)N3CC=C(c4cccc(F)c4C(F)(F)F)CC3)n[nH]c2C1 [Compound 15] | > 180 | < 7.44 | 17.4 | 79.9 | 77 |  |  |  |  |  |  |  |  | 319 | 185 | 141 | 30
NC(=O)C(=O)N1CCc2c(C(=O)N3CC=C(c4ccc(F)c(F)c4C(F)(F)F)CC3)n[nH]c2C1 [Compound 16] | > 180 | < 7.44 | > 180 | < 7.44 |  |  |  |  |  |  |  |  |  | 490 | 101 | 235 | 30
O=C(c1n[nH]c2c1COCC2)N1CC=C(c2ccc(F)c(F)c2C(F)(F)F)CC1 [Compound 17] | > 180 | < 7.44 | 36.4 | 38.1 |  | 17800 | 201 | 2860 | 108 |  |  |  |  |  |  |  | 
O=C1NCC[C@@H]1N1CCc2c(C(=O)N3CC=C(c4ccc(F)c(F)c4C(F)(F)F)CC3)n[nH]c2C1 [Compound 18] | > 180 | < 7.44 | 18.8 | 73.5 |  |  |  |  |  |  |  |  |  |  |  |  | 
CC(C(N)=O)C(=O)N1CCc2c(C(=O)N3CC=C(c4ccc(F)c(F)c4C(F)(F)F)CC3)n[nH]c2C1 (stereo not shown) [Compound 19] | > 180 | < 7.44 | 74.6 | 18.6 |  |  |  |  |  | 41.9 | 119 | 22.3 | 50 |  |  |  | 
O=C1NCC[C@@H]1N1CCc2c(C(=O)N3CC=C(c4cccc(F)c4C(F)(F)F)CC3)n[nH]c2C1 [Compound 20] | 99 | 14 | 13.7 | 101 |  |  |  |  |  | 208 | 97.8 | 112 | 30 |  |  |  | 
NC(=O)C(=O)N1CCc2c(C(=O)N3CC=C(c4cccc(F)c4C(F)(F)F)CC3)n[nH]c2C1 [Compound 21] | > 180 | < 7.44 | 136 | 10.2 | 14 |  |  |  |  | 1200 | 152 | 519 | 30 |  |  |  | 
O=C(c1n[nH]c2c1COCC2)N1CC=C(c2cccc(F)c2C(F)(F)F)CC1 [Compound 23] | 54.3 | 25.5 | 10.7 | 130 |  |  |  |  |  |  |  |  |  |  |  |  | 
CC(=O)N1CCc2c(C(=O)N3CCC(c4ccc(F)c(F)c4C(F)(F)F)CC3)n[nH]c2C1 [reference compound, 1-(3-(4-(3,4-difluoro-2-(trifluoromethyl)phenyl)piperidine-1-carbonyl)-4,5-dihydro-1H-pyrazolo[3,4-c]pyridin-6(7H)-yl)ethanone, reference compound] |  |  |  |  |  |  |  |  |  | 8830 | 92.4 | 3230 | 40.2 |  |  |  | 
